Measurements from patent EP0522596A1, “Method and means for inducing constriction of the pupil in the eye” (Kabi Pharmacia AB, priority 1989, dated 1993).
“Also recorded” adds a separate entry of the source. Ends that are not written are not given here.

Experiments:
pupil [1] = experiment: Antagonism of the CCK-8 miosis dose-response in the monkey eye in vivo; design: species or system monkeys; details: 0.75 µg of Lorglumide injected into the anterior chamber
Method: Example 5: Dose-response determination of CCK-8 was carried out on one eye of atropine treated, pentobarbital anesthesized monkeys in accordance with the description in Example 1. Thereafter 0.75µg of Lorglumide in 15µl of isotonic saline was injected into the anterior chamber of the other eye. The CCK-8 dose-response relationship was then determined in the same way as in the case of the first eye.

pupil [2] = experiment: Capsaicin-induced miosis in monkeys with and without Lorglumide pretreatment; type: in vivo, Macaca fascicularis
Method: Example 7: Monkeys (Macaca fascicularis) were anesthesized, pretreated with atropine and cannulated as described in Example 1. Then 10 µl of a 1% solution of Capsaicin was injected into the anterior chamber; the diameter of the pupil was measured 15 minutes later. The decrease in pupil size obtained with this dose varied from 0 to 1.5 mm.

[3] = test system: receptor present on the sphincter muscle; type: in vivo; details: nerve blockade with tetrodotoxin; pretreatment with indomethacin
[4] = test system: sphincter muscle of the iris; details: injected into the anterior chamber; Bill et al., 1979; cited from earlier work
pupil [5] = details: primates; Mandahl et al., 1980; cited from earlier work

## CCCCCN(CCCCC)C(=O)C(CCC(=O)O)NC(=O)c1ccc(Cl)c(Cl)c1 (racemic) [Lorglumide, D,L-4-(3,4-dichlorobenzoylamino)-5-(dipentylamino)-5-oxo-pentanoic acid]
Pupil [1]
  shift of the CCK-8 dose-response curve to the right: more than one order of magnitude
Pupil [2]; pretreatment with 7.5 µg Lorglumide in 15 µl, capsaicin-sensitive animals
  effect on the pupil response to Capsaicin: decreased the response to Capsaicin; also recorded: most of the effect on the pupil was eliminated

## COc1cc(CNC(=O)CCCCC=CC(C)C)ccc1O [Capsaicin, 8-methyl-N-vanillyl-6-nonenamide]
Pupil [2]; cynomolgus monkey, in vivo
  miotic response in monkeys: less consistent and less pronounced as compared to the response in rabbits

## COc1ccc2c(c1)c(CC(=O)O)c(C)n2C(=O)c1ccc(Cl)cc1 [indomethacin]
[3]
  effect of pretreatment on the miosis response to CCK: do not cause a decrease in the miosis response

## substance P (RPKPQQFFGLM; ends and bridges not checked; UniProt P20366 58-68, looked up) [neuropeptide released in the eye on irritation; synthetically produced]
[4]
  response of the sphincter muscle of the iris: substantial contractive response
Pupil [5]
  pupillary response to substance P: totally absent
